Data set [1] is described as follows: Plasma pharmacokinetics of ATV and metabolites in BDC and UCC dogs (LC-MS/MS). Particulars: male, beagle, dog, po, 40 mg/kg, 40 mg/kg oral dose of ATV, ± standard deviation; for AUC: read-out: AUC0‐24h. In kind it is in vivo. Here is the method: (§1) Plasma samples were collected at 0.5, 1, 2, 4, 6, and 24 hours postdose via cephalic vein or indwelling cephalic catheter. At the 6‐ and 24‐hours postdose time points, dogs were sedated with propofol at 6 mg/kg through an indwelling cephalic catheter. The dogs were then positioned in a dorsal‐recumbency with head elevated. Heart rate, rhythm, and arterial oxygen saturation were monitored throughout the procedure. After shaving and aseptically preparing the abdominal skin immediately caudal to the xiphoid process, an ultrasound exam of the gallbladder and cranial abdomen was done using a Mylab30cv ultrasound system with 9‐3 MHz micro‐convex transducer (Esoate, Indianapolis, IN). A 21‐gauge, 1.5‐inch needle, attached to a 5‐mL syringe, was inserted percutaneously through the abdominal wall into the gallbladder lumen. Effort was made to completely empty the gallbladder by aspiration (typically, 2‐5 mL bile was obtained). The needle and syringe were withdrawn and the bile samples were immediately saved on dry ice for later analysis. Dogs were allowed to recover in their home cages. Both plasma and bile samples were stored at −20°C until analysis.
(§2) Plasma samples were collected from dogs and monkeys at 0.5, 1, 2, 4, 6, and 24 hours postdose. Bile samples were collected at 0‐2 hours, 2‐4 hours, 4‐6 hours, 6‐8 hours, and 8‐24 hours intervals. Both plasma and bile samples were stored at −20°C until analysis.
(§3) Standard curves and quality control (QC) samples defining the dynamic range of the bioanalytical method were prepared in commercially available control plasma and processed in the same fashion as the test samples. When dilutions were required, an aliquot of the sample was diluted into control plasma. […] The supernatant was then separated from the precipitated proteins after a 10‐minute centrifugation at 3500 rpm (2109× g) at 10°C and transferred to an autosampler 96‐well plate. An aliquot (10 µL) was injected onto the ultrahigh performance liquid chromatography (UHPLC) column for LC‐MS/MS‐based analysis. Samples from individual animals were not pooled prior to quantitative analysis.
(§4) The UHPLC system Nexera (Shimadzu, Japan) consisted of two pumps (LC30AD), a column heater (CTO‐30A), and an autosampler (SIL‐30AC) equipped with a cooling compartment that maintained samples at 15°C during analysis. The analytical column used was a BEH C18 2.1 mm × 50 mm, 1.7 µm (Waters Corporation, Milford, MA) at 50°C. The mobile phase, which consisted of 0.1% formic acid in water (A) and acetonitrile (B), was delivered at a flow rate of 0.6 mL/min. The initial conditions were 100% aqueous followed by 1‐minute gradient to 100% acetonitrile then hold for 0.4 minutes and back to initial conditions.
(§5) The UHPLC was interfaced to a Finnigan TSQ Quantum Ultra LC‐MS/MS tandem mass spectrometer (Thermo Electron Corporation) equipped with heated electrospray ionization (HESI‐II) interface operating in the positive ionization mode. Ultrahigh‐purity nitrogen was used as the sheath and auxiliary gases at flow rates of 55 L/h for sheath and 25 L/h for auxiliary. The desolvation temperature was 300°C and the source temperature was 350°C. The detection of each analyte was achieved through selected reaction monitoring. […]
(§6) The peak concentration (Cmax) and time for Cmax (Tmax) were recorded directly from experimental observations. The area under the curve from time 0 to 24 hours (AUC0‐24h) was calculated using a combination of linear and log trapezoidal summations.

The nature of data set [2]: Metabolite profile of ATV in dog bile (LC-MS, UV 254 nm). Particulars: based on the UV chromatograms. It counts as in vivo, beagle dogs.
Method: Dog bile samples obtained by cholecystocentesis were pooled across animals (n = 3). Samples were mixed with an equal volume of citrate buffer (100 mmol/L) to make the final buffer concentration of 50 mmol/L. The mixture was mixed by vortexing for 1 minute and then centrifuged at 12 000× g for 15 minutes. An aliquot (5‐10 μL) of the supernatant was injected onto the UHPLC column for LC‐MS/MS‐based analysis.
The metabolite profile was obtained using LTQ‐Orbitrap coupled with Accela UHPLC and PDA (ThermoScientific, San Jose, CA) and a CTC PAL autosampler equipped with a cooling stack that maintained samples at 4°C during analysis. A 20‐minute UHPLC method was developed. The column was Acquity UPLC HSS T3 (Waters, Milford, MA) 2.1 × 150 mm, 1.8 µm. The column was maintained at a temperature of 55°C. The mobile phase consisted of 0.1% formic acid in water (solvent A) and 0.1% formic acid in acetonitrile (solvent B) at a flowrate of 600 µL/min with the following linear gradient conditions: 5% A for 0.5 minutes, 20‐60% B over 14 minutes, 95% B over 3 minutes, and 5% B isocratic for 2 minutes. Instrument settings were as follows: m/z range: 100 to 1000, capillary temperature was set at 280°C, nitrogen sheath gas flow rate 80 (arbitrary units), auxiliary gas 20, spray voltage 4.0 kV, and tube lens offset 80 V. In addition, UV wavelength was monitored at 254 nm.
The nature of data set [3]: Plasma pharmacokinetics of ATV and metabolites in BDC and UCC monkeys (LC-MS/MS). In kind it is in vivo, cynomolgus macaques. Particulars: for Cmax / Tmax / AUC: male, cynomolgus, cynomolgus monkey, plasma, po, 30 mg/kg, 30 mg/kg oral dose of ATV, ± standard deviation; for AUC: read-out: AUC0‐24h; for plasma concentration: both the UCC and BDC monkey plasma samples, 30 mg/kg ATV orally. Here is the method:
(§7) Plasma and bile samples were collected. For bile collection monkeys were sedated with ketamine (8 mg/kg) and dexmedetomidine (0.05 mg/kg) intramuscularly. At the conclusion of the procedure, sedation was reversed with atipamezole (0.15 mg/kg) intramuscularly. All other procedures were the same as for the dog.
as §2, §3, §4, §5, §6

Data set [4] in a line: Metabolite profile of ATV in monkey bile (LC-MS, UV 254 nm). It counts as in vivo, cynomolgus macaques. Particulars: UV chromatograms.
The nature of data set [5]: Concentration of ATV and metabolites in monkey bile obtained by BDC and UCC (LC-MS/MS). In kind it is in vivo, cynomolgus macaques. Particulars: for Concentration in bile: BDC monkeys, 30 mg/kg ATV orally; for concentration at 24 h: male, cynomolgus, cynomolgus monkey, bile, po, 30 mg/kg. Here is the method: as §7, §2, §3, §4, §5
Test in data set [6]: as above
In kind it is in vivo, cynomolgus macaques. To be noted: UCC monkeys, 4‐5 h, 30 mg/kg ATV orally, ± standard deviation.

Data set [7] can be described thus: Concentration of ATV and metabolites in dog bile obtained by BDC and UCC (LC-MS/MS). To be noted: for Concentration in bile: BDC dogs, 40 mg/kg ATV orally, ± standard deviation; for concentration at 6 h / concentration at 24 h: male, beagle, dog, bile, po, 40 mg/kg. It counts as in vivo, beagle dogs. Here is the method:
as §1, §2, §3, §4, §5

[8] abbreviates: 0‐2 h, n = 2 due to blocked/displaced cannulas.
The mark [9] stands for this setting: 6‐8 h, n = 2 due to blocked/displaced cannulas.

Marks after values point to notes of the source that are not given here.

One may read the Cmax as the highest concentration seen after dosing. The Tmax is the time from dosing to the highest level. Consider `CC(C)c1c(C(=O)Nc2ccccc2O)c(-c2ccccc2)c(-c2ccc(F)cc2)n1CC[C@@H](O)C[C@@H](O)CC(=O)O` [2‐OH ATV, 2‐hydroxyatorvastatin], for which the highest concentration (Cmax) in data set [1] (BDC dogs (n = 3)) stood at 0.352 ± 0.28 µM; in data set [1] (UCC dogs (n = 3)), 0.215 ± 0.095 µM; in data set [3] (BDC monkeys (n = 4)), 0.055 ± 0.02 µM; in data set [3] (UCC monkeys (n = 3)), 0.031 ± 0.018 µM. The time of peak concentration (Tmax) stood at 2 h in data set [1] (BDC dogs (n = 3)), 1.7 ± 0.6 h in data set [1] (UCC dogs (n = 3)), 9 ± 10.1 h in data set [3] (BDC monkeys (n = 4)) and 2 ± 1.7 h in data set [3] (UCC monkeys (n = 3)). For the same molecule, the AUC in data set [1] (BDC dogs (n = 3)) is 0.667 ± 0.203 µM·h; in data set [1] (UCC dogs (n = 3)), 0.736 ± 0.066 µM·h; in data set [3] (BDC monkeys (n = 4)) it was 0.664 ± 0.347 µM·h; in data set [3] (UCC monkeys (n = 3)), 0.057 ± 0.008 µM·h. The “abundance of metabolite in bile” value in data set [2] and in data set [4] was “major oxidative metabolites” throughout. Also, the Concentration in bile is 112 µmol/L in data set [5] (setting [8]); 317 ± 66 µmol/L in data set [5] (2‐4 h, ± standard deviation); 412 ± 302 µmol/L in data set [5] (4‐6 h, ± standard deviation); 306 µmol/L in data set [5] (setting [9]); 303 ± 151 µmol/L in data set [5] (8‐24 h, ± standard deviation); 334 ± 70 µM in data set [6]. Besides, the Concentration in bile in data set [7] (0‐2 h) worked out at 256 ± 284 µM; in data set [7] (2‐4 h), 690 ± 296 µM; in data set [7] (4‐6 h), 337 ± 266 µM; in data set [7] (6‐8 h), 168 ± 134 µM; in data set [7] (8‐24 h), 27 ± 19 µM. Moreover, the concentration at 24 h in data set [5] was found to be 586 ± 127 µM; in data set [7] it was 63 ± 65 µM. In addition, the concentration at 6 h in data set [7] stood at 151 ± 53 µM.

`CC(C)c1c(C(=O)Nc2ccccc2O)c(-c2ccccc2)c(-c2ccc(F)cc2)n1CC[C@@H]1C[C@@H](O)CC(=O)O1` [2‐OH ATV‐L, 2‐hydroxyatorvastatin lactone]: the Cmax amounted to 0.024 ± 0.006 µM in data set [3] (BDC monkeys (n = 4)) and 0.039 ± 0.029 µM in data set [3] (UCC monkeys (n = 3)). In addition, the Tmax in data set [3] (BDC monkeys (n = 4)) stood at 4 ± 1.6 h; in data set [3] (UCC monkeys (n = 3)), 1.3 ± 0.6 h. Further, the AUC turned out to be 0.116 ± 0.045 µM·h in data set [3] (BDC monkeys (n = 4)) and 0.035 ± 0.007 µM·h in data set [3] (UCC monkeys (n = 3)). Moreover, the Concentration in bile in data set [5] (setting [8]) is 36 µmol/L; in data set [5] (2‐4 h, ± standard deviation) it was 93 ± 57 µmol/L; in data set [5] (4‐6 h, ± standard deviation) it was 67 ± 35 µmol/L; in data set [5] (setting [9]), 52 µmol/L; in data set [5] (8‐24 h, ± standard deviation), 18 ± 19 µmol/L; in data set [6] it was 73 ± 19 µM. In data set [5], the concentration at 24 h turned out to be 147 ± 44 µM.

For the molecule `CC(C)c1c(C(=O)Nc2ccc(O)cc2)c(-c2ccccc2)c(-c2ccc(F)cc2)n1CC[C@@H](O)C[C@@H](O)CC(=O)O` [4‐OH ATV, 4‐hydroxyatorvastatin], the Cmax came to 0.138 ± 0.12 µM in data set [1] (BDC dogs (n = 3)) and 0.082 ± 0.03 µM in data set [1] (UCC dogs (n = 3)). Besides, the values for the Tmax in data set [1] (BDC dogs (n = 3)) and in data set [1] (UCC dogs (n = 3)) were 2.7 ± 1.2 h and 3.3 ± 1.2 h, respectively. The AUC in data set [1] (BDC dogs (n = 3)) is 0.293 ± 0.038 µM·h; in data set [1] (UCC dogs (n = 3)) it was 0.381 ± 0.128 µM·h. Moreover, the “abundance of metabolite in bile” value in data set [2] and in data set [4] was “major oxidative metabolites” throughout. Further, the plasma concentration entry in data set [3] was “below the limits of quantitation”. Also, the Concentration in bile is 56 µmol/L in data set [5] (setting [8]); 180 ± 68 µmol/L in data set [5] (2‐4 h, ± standard deviation); 207 ± 116 µmol/L in data set [5] (4‐6 h, ± standard deviation); 140 µmol/L in data set [5] (setting [9]); 181 ± 29 µmol/L in data set [5] (8‐24 h, ± standard deviation); 271 ± 185 µM in data set [6]. Moreover, the Concentration in bile in data set [7] (0‐2 h) came out at 501 ± 522 µM; in data set [7] (2‐4 h), 1342 ± 583 µM; in data set [7] (4‐6 h), 862 ± 472 µM; in data set [7] (6‐8 h) it was 558 ± 356 µM; in data set [7] (8‐24 h), 184 ± 97 µM. In addition, the concentration at 24 h in data set [5] was found to be 594 ± 39 µM; in data set [7], 262 ± 317 µM. In data set [7], the concentration at 6 h is 279 ± 60 µM.

For `CC(C)c1c(C(=O)Nc2ccc(O)cc2)c(-c2ccccc2)c(-c2ccc(F)cc2)n1CC[C@@H]1C[C@@H](O)CC(=O)O1` [4‐OH ATV‐L, 4‐hydroxyatorvastatin lactone], the plasma concentration result in data set [3] was “below the limits of quantitation”. The Concentration in bile in data set [5] (setting [8]) was 2 µmol/L; in data set [5] (2‐4 h, ± standard deviation), 6 ± 3 µmol/L; in data set [5] (4‐6 h, ± standard deviation) it was 4 ± 2 µmol/L; in data set [5] (setting [9]) it was 3 µmol/L; in data set [5] (8‐24 h, ± standard deviation), 2 ^b μmol/L; in data set [6], 9 ± 5 µM. The concentration at 24 h in data set [5] amounted to 19 ± 3 µM.

These data come from publication PMC6536413, “Application of ultrasound‐guided cholecystocentesis to the evaluation of the metabolite profiling in bile of dogs and cynomolgus monkeys” (Pharmacology Research & Perspectives, 2019).
